The numbers were not newly measured in patent US20030008014A1, “Truncated apolipoprotein B-containing lipoprotein particles for delivery of compounds to tissues or cells” (priority 2001, published 2003), which cites them from elsewhere.

In one data set the test system is breast tumor xenografts. The conditions noted are these: two 10 mg/kg injections on days 1 and 4.

For the compound `CC(C)CCC[C@@H](C)[C@H]1CC[C@H]2[C@@H]3CC=C4C[C@@H](O)CC[C@]4(C)[C@H]3CC[C@]12C` [Free cholesterol, cholesterol], the “solubility in phospholipid disks” value was about 30 mole %. Regarding `CC(=O)O[C@H]1C(=O)[C@@]2(C)[C@H]([C@H](OC(=O)c3ccccc3)[C@]3(O)C[C@H](OC(=O)[C@H](O)[C@@H](NC(=O)c4ccccc4)c4ccccc4)C(C)=C1C3(C)C)[C@]1(OC(C)=O)CO[C@@H]1C[C@@H]2O` [paclitaxel], in the data set with breast tumor xenografts, the “inhibition of tumor growth” value was “maximal inhibition of tumor growth”.
